# Measured values: PMC9147192, “Small Molecule Arranged Thermal Proximity Coaggregation (smarTPCA)—A Novel Approach to Characterize Protein–Protein Interactions in Living Cells by Similar Isothermal Dose–Responses” (International Journal of Molecular Sciences, 2022)
# Several values for one entry are separate records, joined by “and”; a condition that tells them apart may be missing. Equal entries are not always repeated. Where two headings read alike, the source gives them in different places.
# What was measured:
# MAPKAPK2p = biological target: T1, MAPKAPK2p (Homo sapiens, UniProt P49137); assay: CETSA in HL-60 cell extract, immunoblot; assay type: binding
# T1 construct: phosphorylation-dependent electrophoretic mobility shift (PDEMS) of MAPKAPK2, which appeared as a double band; endogenous in cells; host or cells: HL-60 (ATCC CCL-240), living cells or cell extract
# Description: (§1) For the differentiation of primary and secondary binding effects, CETSA experiments using cell extracts instead of living cells (cell extract test) are proposed in the literature. Therefore, we performed CETSA assays in HL-60 cell extracts under the same conditions as for living cells (Figure 1, Table 1, Supplementary Table S6).
# (§2) HL-60 cells were expanded as described above for CETSA and TPP-TR to about 1.25 million cells per ml. 50 mL of the cell suspension, respectively, was transferred into 50 mL conical tubes. After centrifugation (300 rcf, 3 min, r.t.) and removing all of the supernating culture medium, the cells were washed twice with 25 mL PBS (r.t.) by gently resuspending the cells, followed by centrifugation (300 rcf, 3 min, r.t.) and the removal of the supernatant. The cells were transferred into pre-weighed 2 mL LoBind Eppendorf tubes using 1 mL PBS (r.t.), respectively, for resuspending. After centrifugation (300 rcf, 3 min, r.t.) and removing as much as possible of the supernatants, the cell wet weights were determined. The cells were stored at −80 °C after shock-freezing in liquid nitrogen.
# (§3) Cell extracts were obtained by four freeze/thaw cycles as described above for CETSA and TPP-TR using 10 µL ice cold PBS supplemented with protease inhibitors per milligram of cell pellet wet weight for the initial resuspension of the pellet, followed by centrifugation (20,000 rcf, 30 min, 4 °C), and the recovery of the supernatant. After determining the protein content, the cell extracts were diluted to 1.8 mg/mL total protein concentration using ice-cold PBS supplemented with protease inhibitors and aliquots of 99 µL in PCR tube strips, and 1.1 mL in LoBind 1.5 mL Eppendorf tubes were shock-frozen in liquid nitrogen and stored at −80 °C or directly processed.
# (§4) A fourth aliquot of 1.8 mg/mL HL-60 cell extract was supplemented with 2.2 µL of DMSO. […] After a brief centrifugation using a benchtop centrifuge, the temperature treatment at the ten different temperatures was performed as described in Section 4.1.1.
# (§5) Additionally, the preparation of cell extracts containing the fraction of soluble, non-denatured proteins was performed as described in Section 4.1.1. for living cells, but omitting the freeze/thaw steps for cell lysis.
# (§6) For each sample set comprising either ten temperature range samples or ten compound concentration range samples, the same volume of the cell extracts containing the fraction of soluble, non-denatured proteins was used for further analysis. This volume was determined using the two lowest temperature samples (36.5 and 41.2 °C) per temperature range sample set so that they contained an average of 5 µg total protein (e.g., 2.78 µL for all temperature range samples of a sample set whose two lowest temperature samples contain an average of 1.8 mg/mL protein). For the compound concentration range experiments, all samples of a set were used for averaging. The calculated volume was respectively transferred into PCR tubes of a tube strip, supplemented with SDS sample buffer (final concentrations: 25 mM dithiothreitol (DTT), 7.5% glycerol, 3% SDS, 37.5 mM Tris/HCl pH 7.0, 0.005% bromophenol blue), incubated for 10 min at r.t. and applied to SDS-PAGE under external cooling in an ice bath (MW marker: PageRuler pre-stained protein ladder (Thermo scientific, Waltham, MA, USA); NuPAGE 4–12% Bis-Tris Gels, 1.0 mm, Midi Protein Gel, 26-well (Thermo fisher scientific); ice cold MOPS SDS running buffer (50 mM MOPS, 50 mM Tris base, 0.1% SDS, 0.003% EDTA (free acid)); 50 V for 15 min, then 200 V for about 1.5 h, i.e., the rest of the run).
# MAPKAPK3 = MAPKAPK3 (Homo sapiens, UniProt Q16644); assay: CETSA in HL-60 cell extract, immunoblot; assay type: binding
# Description: as §1, §2, §3, §4, §5, §6
# MAPK14 = MAPK14 (Homo sapiens, UniProt Q16539); assay: CETSA in HL-60 cell extract, immunoblot; assay type: binding
# Description: as §1, §2, §3, §4, §5, §6
# WDR46 = WDR46 (Homo sapiens, UniProt O15213); assay: TPP-CCR in living HL-60 cells
# [1] = HL-60 cell extract, 20 µM inhibitor, immunoblot
# [2] = HL-60 cell extract, 20 µM inhibitor, immunoblot, 20 µM
# [3] = MAPKAPK2p, cell extract, immunoblot
# [4] = MAPKAPK3, cell extract, immunoblot
# Sequence of MAPK14 (Q16539 whole entry): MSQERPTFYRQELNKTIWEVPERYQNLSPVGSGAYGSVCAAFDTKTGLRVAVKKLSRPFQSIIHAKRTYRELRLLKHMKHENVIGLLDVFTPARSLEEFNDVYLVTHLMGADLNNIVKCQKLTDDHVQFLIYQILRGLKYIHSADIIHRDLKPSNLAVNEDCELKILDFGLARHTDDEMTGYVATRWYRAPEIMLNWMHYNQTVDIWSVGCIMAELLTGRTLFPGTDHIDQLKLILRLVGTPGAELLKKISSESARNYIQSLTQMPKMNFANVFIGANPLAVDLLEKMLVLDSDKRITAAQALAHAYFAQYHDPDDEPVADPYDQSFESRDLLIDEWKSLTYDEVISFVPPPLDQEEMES
# Sequence of MAPKAPK3 (Q16644 whole entry): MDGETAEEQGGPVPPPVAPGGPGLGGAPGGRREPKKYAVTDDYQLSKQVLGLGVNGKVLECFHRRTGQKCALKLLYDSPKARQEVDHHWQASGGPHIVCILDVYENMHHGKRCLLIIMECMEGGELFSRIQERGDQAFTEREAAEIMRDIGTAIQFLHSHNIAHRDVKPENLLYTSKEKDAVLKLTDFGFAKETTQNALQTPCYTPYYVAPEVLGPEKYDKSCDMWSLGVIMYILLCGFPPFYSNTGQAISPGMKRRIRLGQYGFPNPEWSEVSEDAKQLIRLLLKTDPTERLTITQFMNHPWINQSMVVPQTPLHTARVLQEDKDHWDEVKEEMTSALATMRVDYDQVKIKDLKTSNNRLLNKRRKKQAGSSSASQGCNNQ
# Sequence of MAPKAPK3 (Q16539 whole entry partner): as the sequence (Q16539 whole entry) above
# T1 sequence (P49137 whole entry): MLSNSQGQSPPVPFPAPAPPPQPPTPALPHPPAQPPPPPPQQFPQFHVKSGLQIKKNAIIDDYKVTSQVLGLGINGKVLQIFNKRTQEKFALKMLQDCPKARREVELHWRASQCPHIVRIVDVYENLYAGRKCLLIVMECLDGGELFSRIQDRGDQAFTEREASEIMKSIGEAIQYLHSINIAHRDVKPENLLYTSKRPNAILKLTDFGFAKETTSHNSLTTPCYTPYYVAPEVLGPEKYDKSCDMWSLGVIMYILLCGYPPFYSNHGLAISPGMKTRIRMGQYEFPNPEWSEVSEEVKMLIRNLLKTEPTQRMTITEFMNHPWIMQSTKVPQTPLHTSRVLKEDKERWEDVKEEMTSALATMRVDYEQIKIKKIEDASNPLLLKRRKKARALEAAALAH
# T1 sequence (Q16539 2-360 partner): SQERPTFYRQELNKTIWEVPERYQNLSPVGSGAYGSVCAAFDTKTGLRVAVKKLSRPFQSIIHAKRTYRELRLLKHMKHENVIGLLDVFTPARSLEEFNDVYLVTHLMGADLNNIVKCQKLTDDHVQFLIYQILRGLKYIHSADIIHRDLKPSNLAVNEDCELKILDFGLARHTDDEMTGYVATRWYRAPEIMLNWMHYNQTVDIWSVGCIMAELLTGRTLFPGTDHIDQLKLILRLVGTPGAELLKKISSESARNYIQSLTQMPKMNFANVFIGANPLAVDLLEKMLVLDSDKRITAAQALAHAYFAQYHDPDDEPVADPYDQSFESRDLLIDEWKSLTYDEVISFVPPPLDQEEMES
# Sequence of WDR46 (O15213 whole entry): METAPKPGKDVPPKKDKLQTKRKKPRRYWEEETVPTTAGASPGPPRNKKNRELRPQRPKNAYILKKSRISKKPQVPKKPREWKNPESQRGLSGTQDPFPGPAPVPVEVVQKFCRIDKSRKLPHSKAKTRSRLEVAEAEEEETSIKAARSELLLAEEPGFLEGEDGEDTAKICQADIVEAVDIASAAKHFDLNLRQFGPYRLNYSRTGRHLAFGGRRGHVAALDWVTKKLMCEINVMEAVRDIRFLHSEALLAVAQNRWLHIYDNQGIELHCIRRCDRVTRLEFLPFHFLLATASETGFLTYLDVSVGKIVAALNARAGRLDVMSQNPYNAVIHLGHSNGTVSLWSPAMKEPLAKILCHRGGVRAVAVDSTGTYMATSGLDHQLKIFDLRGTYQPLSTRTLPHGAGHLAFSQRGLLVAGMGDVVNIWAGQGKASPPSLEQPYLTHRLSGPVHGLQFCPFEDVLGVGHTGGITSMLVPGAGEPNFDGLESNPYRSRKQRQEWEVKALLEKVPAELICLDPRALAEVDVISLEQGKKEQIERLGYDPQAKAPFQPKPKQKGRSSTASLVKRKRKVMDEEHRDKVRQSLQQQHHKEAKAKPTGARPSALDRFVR
smiles,measurement,setting,value
Cn1c(NC[C@@H](N)Cc2ccccc2)nc(-c2ccncc2)c(-c2ccc3ccccc3c2)c1=O [AMG-548],"Tm difference vs DMSO, same protein","MAPKAPK2p; CETSA in cell extract (lysate), MAPKAPK2p, inhibitor minus DMSO",2.82
same,Tm (fitted melting curve),"MAPKAPK2p; CETSA in cell extract (lysate), MAPKAPK2p, in °C",50.95
same,Tm (MAPKAPK2p),MAPKAPK2p; [1],50.95 °C
same,ΔTm to DMSO (MAPKAPK2p),MAPKAPK2p; [2],2.82 °C
same,ΔTm to DMSO (MAPKAPK2p),"MAPKAPK2p; HL-60 cell extract, 20 µM inhibitor, immunoblot, listed as AMG548, 20 µM",2.8 °C
same,Tm,MAPKAPK2p; [3],50.95 °C
same,ΔTm to DMSO,MAPKAPK2p; [3],2.82 °C
same,ΔTm to DMSO in Cell Extract Compared to Living Cells (MAPKAPK3),MAPKAPK3; 20 µM inhibitor,−3.99 °C
same,"Tm difference vs DMSO, same protein","MAPKAPK3; CETSA in cell extract (lysate), MAPKAPK3, inhibitor minus DMSO",2.63
same,Tm (fitted melting curve),"MAPKAPK3; CETSA in cell extract (lysate), MAPKAPK3, in °C",49.31
same,Tm (MAPKAPK3),MAPKAPK3; [1],49.31 °C
same,ΔTm to DMSO (MAPKAPK3),MAPKAPK3; [2],2.6 °C and 2.63 °C
same,ΔTm to DMSO in cell extract compared to living cells,"MAPKAPK3; MAPKAPK3, cell extract minus living cells",-3.99 °C
same,Tm,MAPKAPK3; [4],49.31 °C
same,ΔTm to DMSO,MAPKAPK3; [4],2.63 °C
same,ΔTm at 20 µM,"MAPK14; 20 µM inhibitor, read-out: ΔTm to DMSO in Cell Extract Compared to Living Cells (MAPK14)",-1.16 °C
same,"Tm difference vs DMSO, same protein","MAPK14; CETSA in cell extract (lysate), MAPK14, inhibitor minus DMSO",13.60
same,Tm (fitted melting curve),"MAPK14; CETSA in cell extract (lysate), MAPK14, in °C",59.15
same,Tm (MAPK14),MAPK14; [1],59.15 °C
same,ΔTm at 20 µM,"MAPK14; HL-60 cell extract, 20 µM inhibitor, immunoblot, read-out: ΔTm to DMSO (MAPK14)",13.6 °C
same,Tm,"MAPK14; MAPK14, cell extract, immunoblot",59.15 °C
C[S+]([O-])c1ccc(-c2nc(-c3ccncc3)c(-c3ccc(F)cc3)[nH]2)cc1 (centres unmarked) [SB203580],EC50,WDR46,32.4 nM
same,Hill slope (WDR46),"WDR46; living HL-60 cells, […] °C, TMT-MS",0.23
